This is an account of results in patent US20220340951A1, “MEASURING THE ANTIMICROBIAL SUSCEPTIBILITY OF MICROBES” (priority 2019, published 2022).

Converted amounts (≈) assume the structure as drawn. “Also recorded” adds a separate entry of the source.

A short description of series [1]: Antibiotic screening: CV, EIS and DPV of antibiotic solutions (without gels) on gold screen printed electrode. It counts as physicochemical. Conditions: antibiotic at typical working concentration, no gel; for Phase / Z at 100 kHz: EIS; for CDL / RSOLN: fitted EIS. The protocol: CV measurements were performed by sweeping the potential between −0.3 V to 0.5 V with reference to the Ag electrode three times. Analysis was performed using the third measurement. Electrodes were also characterised using differential pulse voltammetry (DPV) across the same potential range as CV. Peak current (Ipk) was extracted from the DPV measurement. Electrodes were also characterised using EIS. […] The Nyquist and Bode impedance plots that were generated were fitted to the Randles' equivalent circuit to extract various impedance parameters. […] A wide spectrum of antibiotics were tested including amoxicillin, oxacillin, methicillin, ampicillin, chloramphenicol, gentamicin, streptomycin and carbenicillin. […] Amoxicillin was then tested in an agarose gel with and without FF-C present (FIG. 2 (b)). […] The majority of the parameters are taken from fitted EIS data alongside Ipk from DPV measurements.

Series [2] deals with methicillin-resistant Staphylococcus aureus (MRSA: ATCC 43300). The series can be described thus: Electrochemical (EIS/DPV) bacterial growth profile on antibiotic-infused gel-modified electrode. It counts as cell-based.
The test system of series [3] is Staphylococcus aureus (ATCC 29213). Briefly: Electrochemical (EIS) bacterial growth profile on antibiotic-infused gel-modified electrode. It counts as cell-based. Conditions: for Z at 100 kHz growth profile compared with baseline (no bacteria): antibiotic 8 μg/ml in gel, up to 150 minutes.
The subject of a further series is E. coli (ATCC 25922). The series can be described thus: Minimum inhibitory concentration of streptomycin as used in E. coli gels. It counts as cell-based. To be noted: Escherichia coli, ATCC25922.
The next series deals with sensitive S. aureus. Briefly: Gel streak plate growth (1 wt % agarose + LB). It counts as cell-based, Staphylococcus aureus. To be noted: amoxicillin 8 μg/ml; with or without FF-C.
In series [4] the test system is methicillin-resistant S. aureus (MRSA). Briefly: Gel streak plate growth (1 wt % agarose + LB Broth + FF-C). It counts as cell-based, Staphylococcus aureus. Conditions: amoxicillin 8 μg/ml.
A further series deals with MRSA. Briefly: Minimum inhibitory concentration by two-fold broth microdilution. It counts as cell-based. To be noted: Staphylococcus aureus; strain not stated explicitly; printed in the MRSA context.

Turning to `CC1(C)S[C@@H]2[C@H](NC(=O)C(C(=O)O)c3ccccc3)C(=O)N2[C@H]1C(=O)O` (stereo partly drawn) [carbenicillin], in series [1], the “DPV Ipk” value is recorded as 0 μA, the Phase amounted to 46.56 °, the “Z at 100 kHz” value came to 7.54 kΩ and the CDL is given as 0.44 μF. For the same compound, in series [1], the RSOLN was 11.83 kΩ.

In the case of gentamicin, in series [1], the “DPV Ipk” value is on record as 0.01 μA, the Phase came to 31.68 °, the “Z at 100 kHz” value worked out at 6.05 kΩ and the CDL came to 0.77 μF. The compound also yielded an RSOLN in series [1] of 7.97 kΩ.

As for `Cc1onc(-c2ccccc2)c1C(=O)N[C@@H]1C(=O)N2[C@@H]1SC(C)(C)[C@@H]2C(=O)O` [oxacillin], in series [2] (oxacillin 8 μg/ml gel), the “Z growth curves for gels with and without oxacillin” value was “look very similar for gels with and without oxacillin”. Also, the “Z at 100 kHz growth profile compared with baseline (no bacteria)” value in series [3] was “very similar Z profile to the baseline measurement”. Also, the “baseline-subtracted Z at 100 kHz over time” value in series [3] (oxacillin gel 8 μg/ml, up to ~70 minutes) is on record as “remains fairly flat”. In series [1], the “DPV Ipk” value worked out at 0 μA, the Phase was found to be 111.17 °, the “Z at 100 kHz” value is listed as 22.79 kΩ and the CDL came out at 0.28 μF. For the same compound, the RSOLN in series [1] amounted to 49.81 kΩ.

The compound `[H]/N=C(/N)N[C@H]1[C@H](O)[C@@H](O)[C@H](O[C@@H]2O[C@@H](C)[C@](O)(C=O)[C@H]2O[C@@H]2O[C@@H](CO)[C@H](O)[C@@H](O)[C@@H]2NC)[C@@H](N/C(N)=N\[H])[C@@H]1O` [streptomycin] had a minimum inhibitory concentration (MIC) against E. coli (ATCC 25922) of around 4 µg/mL (≈ 6.88 µM). In series [1], the “DPV Ipk” value was found to be 0 μA, the Phase is 58.51 °, the “Z at 100 kHz” value amounted to 16.45 kΩ and the CDL came to 0.58 μF. The same compound returned an RSOLN in series [1] of 55.85 kΩ.

For the compound `COc1cccc(OC)c1C(=O)N[C@@H]1C(=O)N2[C@@H]1SC(C)(C)[C@@H]2C(=O)O` [methicillin], in series [1], the “DPV Ipk” value was 0.06 μA, the Phase is 61.43 °, the “Z at 100 kHz” value was 15.92 kΩ and the CDL stood at 0.53 μF. In addition, in series [1], the RSOLN was 67.30 kΩ.

For the compound `O=C(N[C@H](CO)[C@H](O)c1ccc([N+](=O)[O-])cc1)C(Cl)Cl` [chloramphenicol], in series [1], the “DPV Ipk” value was 0.31 μA, the Phase amounted to 76.20 °, the “Z at 100 kHz” value is listed as 19.06 kΩ and the CDL is on record as 0.41 μF. The same compound displayed an RSOLN in series [1] of 94.39 kΩ.

Turning to `CC1(C)S[C@@H]2[C@H](NC(=O)[C@H](N)c3ccccc3)C(=O)N2[C@H]1C(=O)O` [ampicillin], in series [1], the “DPV Ipk” value is 0 μA, the Phase was found to be 67.63 °, the “Z at 100 kHz” value turned out to be 10.88 kΩ and the CDL turned out to be 0.38 μF. In addition, the RSOLN in series [1] was 40.93 kΩ.

As to `CC1(C)S[C@@H]2[C@H](NC(=O)[C@H](N)c3ccc(O)cc3)C(=O)N2[C@H]1C(=O)O` [amoxicillin], the “growth on streak plate” value in the series with sensitive S. aureus is recorded as “completely inhibited; also recorded: unable to grow”. For the same compound, the “change in Z (baseline subtracted)” value in series [2] (amoxicillin 8 μg/ml gel, over 30-100 minutes) is ~11 Ω. Also, the “Z at 100 kHz growth profile compared with baseline (no bacteria)” value in series [2] (amoxicillin 8 μg/ml in gel) is reported as “does not imitate the baseline”. In addition, the “DPV peak current (Ipk) growth profile, baseline subtracted” value in series [2] (amoxicillin 50 μg/ml gel) was “almost completely flat”. Further, in series [2] (amoxicillin 50 μg/ml gel, 30-100 minutes), the “change in Z (baseline subtracted)” value is “virtually no change in Z”. Moreover, in series [2] (amoxicillin 50 μg/ml in gel), the “Z at 100 kHz growth profile compared with baseline (no bacteria)” value is listed as “very similar profile to the baseline measurement”. Besides, the “baseline-subtracted Z at 100 kHz over time” value in series [3] (amoxicillin-laden gel 8 μg/ml, between 30 and 100 minutes) is “unchanging”. Also, the “Z at 100 kHz growth profile compared with baseline (no bacteria)” value in series [3] is on record as “almost identical response to the baseline response”. Moreover, in series [4], the “growth on streak plate” value is given as “displays growth either in the presence or absence of amoxicillin”. The same compound had an MIC against MRSA of around 8 µg/mL (≈ 21.9 µM). For the same compound, in series [1], the “DPV Ipk” value was determined as 0.02 μA, the Phase is on record as 82.74 °, the “Z at 100 kHz” value is recorded as 21.34 kΩ and the CDL came out at 0.53 μF. This compound also showed an RSOLN in series [1] of 143.30 kΩ.
